# Columns and labels:
# T cell function = assay: Suppression of T cell function by adenosine; assay type: cell-based
# [1] = test system: patients with advanced cancers; assay: Phase 1/1b clinical trial, tumor response by baseline biomarker level; assay type: in vivo, human; conditions: for Objective response rate / Disease control rate: 100 mg orally twice a day, 28 days
# Protocol: FIG. 3 is a graph showing tumor response to treatment with the compound of Formula (III) in patients expressing low levels of adenosine A2A receptors and patients expressing high levels of adenosine A2A receptors. RNA was extracted from pre-treatment tumor samples, and Nanostring was performed to arrive at the values described herein. The disease control rate was 0 of 11 patients who expressed low levels of adenosine A2A receptors, and was 9 of 26 patients who expressed high levels of adenosine A2A receptors. The objective response rate was 0 of II patients who expressed low levels of adenosine A2A receptors, and 1 of 26 patients who expressed high levels of adenosine A2A receptors.
# FIG. 4 is a graph showing tumor response to treatment with the compound of Formula (III) in patients expressing low levels of CD73 and patients expressing high levels of CD73. RNA was extracted from pre-treatment tumor samples, and Nanostring was performed to arrive at the values described herein. The disease control rate was 1 of 9 patients who expressed low levels of CD73, and was 8 of 28 patients who expressed high levels of CD73. The objective response rate was 0 of 9 patients who expressed low levels of CD73, and was 1 of 28 patients who expressed high levels of CD73.
# FIG. 5 is a graph showing tumor response to treatment with the compound of Formula (III) in patients expressing low levels of adenosine A2A receptors and/or CD73 and patients expressing high levels of both adenosine A2A receptors and CD73. RNA was extracted from pre-treatment tumor samples, and Nanostring was performed to arrive at the values described herein. The disease control rate was 8 of 21 patients who expressed low levels of adenosine A2A receptors and/or CD73, and was 1 of 16 patients who expressed high levels of both adenosine A2A receptors and CD73. The objective response rate was 1 of 21 patients who expressed low levels of adenosine A2A receptors and/or CD73, and was 0 of 16 patients who expressed high levels of both adenosine A2A receptors and CD73.
# FIG. 6 is a graph showing tumor response to treatment with the compound of Formula (III) in patients expressing low levels of PD-L1 mRNA and patients expressing high levels of PD-L1 mRNA. RNA was extracted from pre-treatment tumor samples, and Nanostring was performed to arrive at the values described herein. The disease control rate was 3 of 17 patients who expressed low levels of PD-L1 mRNA, and was 6 of 20 patients who expressed high levels of PD-L1 mRNA. The objective response rate was 0 of 17 patients who expressed low levels of PD-L1 mRNA, and was 1 of 20 patients who expressed high levels of PD-L1 mRNA.
# FIG. 7 is a graph showing tumor response to treatment with the compound of Formula (III) in patients having low levels of PD-L1 and patients having high levels of PD-L1. PD-L1 staining on immune cells was determined by immunohistochemistry using the SP142 antibody that detects PD-L1. The disease control rate was 7 of 24 patients who expressed low levels of PD-L1, and was 2 of 13 patients who expressed high levels of PD-L1. The objective response rate was 0 of 24 patients who expressed low levels of PD-L1, and was 1 of 13 patients who expressed high levels of PD-L1.
# “Objective response rate” refers to the patients that had greater than 30% reduction in the sum of the longest dimensions of their assessed target tumor lesions.
# The compound of Formula (III) is being investigated in an ongoing Phase 1/1b clinical trial in patients with advanced cancers (NCT02655822 at www.clinicaltrials.gov). Biomarker investigations were conducted to explore immune modulation in serial tumor biopsies and peripheral blood as well associations between adenosine pathway genes and clinical activity. […]
# tumor biopsies = assay: On-treatment vs pre-treatment tumor biopsies, IHC and Nanostring gene expression; assay type: in vivo, human; conditions: on-treatment biopsies compared to pre-treatment biopsies
# Source text: FIGS. 8A-8H show log2-fold changes in immunohistochemistry and gene expression (i.e., mRNA) by Nanostring on on-treatment biopsies compared to pre-treatment biopsies and identifies pharmacodynamics changes that are observed in CD73-high tumors treated with a compound of Formula (III). FIG. 8A compares CD8 infiltration, measured by IHC, in patients expressing low levels and high levels of CD73 (where the p=0.005) after treatment with the compound of Formula (III). FIG. 8B compares PD-L1 inflammation infiltration, measured by IHC, in patients expressing low levels and high levels of CD73 (p=0.15) after treatment with the compound of Formula (III). FIG. 8C compares CXCL9 (chemokine C-X-C motif ligand 9) gene expression in patients expressing low levels and high levels of CD73 (p=0.02) after treatment with the compound of Formula (III). […]
# The patients were orally administered the compound of Formula (III) at a dose of 100 mg, twice a day, for twenty-eight days. Tumor biopsies and blood samples were analyzed from patients with renal cell carcinoma, non-small cell lung cancer, triple negative breast cancer, microsatellite instable colorectal cancer treated with the compound of Formula (III). Paired tumor biopsies were analyzed: gene expression profiles (Nanostring), CD8, PD-L1 and CD73 (IHC). […]
# [2] = patients expressing high levels of both adenosine A2A receptors and CD73
# [3] = patients expressing low levels of adenosine A2A receptors and/or CD73
structure (smiles),measurement,setting,value
Cc1ccc(-c2nc(N)nc3c2nnn3Cc2cccc(COC3CCOC3)n2)o1 (centres unmarked) [compound of Formula (III)],Effect on suppression of T cell function by adenosine,T cell function,inhibits suppression of T cell function by adenosine
same,Objective response rate,[1]; patients expressing high levels of CD73,1 of 28
same,Disease control rate,[1]; patients expressing high levels of CD73 (Nanostring),8 of 28
same,Objective response rate,[1]; patients expressing high levels of PD-L1 mRNA,1 of 20
same,Disease control rate,[1]; patients expressing high levels of PD-L1 mRNA (Nanostring),6 of 20
same,Objective response rate,[1]; patients expressing high levels of adenosine A2A receptors,1 of 26
same,Disease control rate,"[1]; patients expressing high levels of adenosine A2A receptors (Nanostring, pre-treatment tumor)",9 of 26
same,Disease control rate,[1]; [2],1 of 16
same,Objective response rate,[1]; [2],0 of 16
same,Objective response rate,[1]; patients expressing low levels of CD73,0 of 9
same,Disease control rate,[1]; patients expressing low levels of CD73 (Nanostring),1 of 9
same,Objective response rate,[1]; patients expressing low levels of PD-L1 mRNA,0 of 17
same,Disease control rate,[1]; patients expressing low levels of PD-L1 mRNA (Nanostring),3 of 17
same,Disease control rate,"[1]; patients expressing low levels of adenosine A2A receptors (Nanostring, pre-treatment tumor)",0 of 11
same,Disease control rate,[1]; [3],8 of 21
same,Objective response rate,[1]; [3],1 of 21
same,Disease control rate,"[1]; patients with high levels of PD-L1 (IHC on immune cells, SP142 antibody, ≥1%)",2 of 13
same,Objective response rate,"[1]; patients with high levels of PD-L1 (IHC, SP142)",1 of 13
same,Disease control rate,"[1]; patients with low levels of PD-L1 (IHC on immune cells, SP142 antibody, <1%)",7 of 24
same,Objective response rate,"[1]; patients with low levels of PD-L1 (IHC, SP142)",0 of 24
same,Tumor regression,"[1]; patients with elevated expression of adenosine A2A receptor genes, CD73 and PD-L1 in baseline tumor samples compared to patients having low expression",significant tumor regression
same,Pharmacodynamics changes in IHC and gene expression,tumor biopsies,observed only in CD73-high tumors
same,Activity in preclinical models,Preclinical models,active in multiple preclinical models

# From patent US20210008206A1, “ADENOSINE PATHWAY INHIBITORS FOR CANCER TREATMENT” (Corvus Pharmaceuticals, Inc., priority 2017, published 2021)
